Results from patent US4110626A, “Method for improving the quality of the fragrance of perfumes using aliphatic dibasic acid diesters” (Shiseido Co., Ltd., priority 1976, dated 1978).

Tests used:
[1] = Fixing effect: HS-GC (II), analysis of volatilized portion after standing 15 minutes; type: physicochemical; settings: for Analysis of Volatilized Portion after Standing 15 Minutes (HS-GC (II) Method): controlling agent 15%, model perfume 5%
Experimental: (§1) Then, the fixing effect was evaluated by a second head space gas chromatographic (II) method (HS-GC (II)). Specifically, a perfume containing 0.7 g of a perfume controlling agent was coated on a sheet of paper having a predetermined thickness, area (11.5 × 7.5 cm), and weight (about 2.9 g). The coated paper was allowed to stand for 15 minutes in an open space in a room (6 × 4 × 2.5 m) maintained at a humidity of 50% at a ventilation rate of 1,500 m^3 /hr. The paper was then transferred into a 1,000 ml Erlenmeyer flask, and the flask was tightly sealed. After a lapse of 15 minutes, the volatilized portion was collected and analyzed by gas chromatography under the conditions shown Table A above. Furthermore, the residue on the paper was extracted with acetone, and analyzed by gas chromatography using conditions shown in Table B below.
(§2) The composition of the model perfume used was as follows:
Model Perfume: 5% by weight
95% Ethanol: 95% by weight
The composition of the perfume containing a perfume controlling agent was as follows:
Perfume Controlling Agent: 15% by weight
95% Ethanol: 80% by weight

[2] = Acute oral toxicity (LD50)
[3] = Fixing effect: analysis of residue on paper after standing 15 minutes; type: physicochemical
Experimental: as §1
Column: 5% FFAP (free fatty acid polyester; a trade name for a product of Nippon Chromato Co., Ltd.) on diatomaceous earth (2m)
Column Temperature: 80° C (5 minutes, isothermal) to 220° C (4° C/min.)
Injector Temperature: 260° C
Detector Temperature: 260° C
(§3) Detector: Flame Ionization Detector
(§4) Carrier Gas: He (40 ml/min.)
as §2
The values shown in Table 5 above were obtained by calculating the areas of the perfumes while the area of musk ketone measured by gas chromatography was taken as 1. (This calculating procedure was adopted because musk ketone has a high boiling point, and scarcely volatilizes at 30° C.)

skin of an albino rabbit = experiment: Primary irritation of the skin of an albino rabbit; type: in vivo; settings: 0.3 ml, intact and abraded area, 24 hours
Experimental: The primary irritation of the skin of an albino rabbit was determined by adhering 0.3 ml of a test agent on a lint cloth patch, applying the cloth to an intact area and an abraded area of the skin of the back of the albino rabbit, and evaluating the skin reactions at these two areas after a lapse of 24 hours. Then, an overall evaluation was made.

[4] = Fixing effect: head space gas chromatographic (I) method (HS-GC (I)); type: physicochemical; settings: 35° C, 60 minutes
Experimental: A model perfume formulation was prepared using eight typical perfumes having different chemical structures, and the fixing effect of a perfume controlling agent was evaluated.
The fixing effect of the perfume controlling agent was determined using a head space gas chromatographic (I) method (to be abbreviated hereinafter as HS-GC (I) method). Specifically, 0.5 g of a perfume containing the perfume controlling agent was placed in an Erlenmeyer flask, and after sealing, the flask was allowed to stand at 35° C for 60 minutes.
Column: 3% polyethylene glycol having a molecular weight of about 20,000 on diatomaceous earth (2m)
Column Temperature: -40° C (5 minutes, isothermal) flushed to 80° C and then to 200° C (4° C/min.)
Injector Temperature: 250° C
Detector Temperature: 250° C
as §3, §4

Pseudomonas aeruginosa = experiment: Microorganism assimilation; settings: for OD (turbidity): 660 nm
Experimental: 100 ml of the above liquid medium was placed in a 500 ml Sakaguchi flask, and sterilized at 120° C for 15 minutes in an autoclave in a customary manner. After cooling, the culture medium was inoculated with a prescribed amount of a suspension of the pre-cultured microorganism and cultivated at 30° C with shaking 120 times per minute.
Changes with time in the pH, turbidity, number of living cells were determined.
The turbidity was determined as follows: 2 ml of the culture broth was collected, and the precipitate was separated with a centrifugal separator. The precipitate was washed with acetone, and suspended in 2 ml of distilled water. The turbidity (OD) of the suspension at 660 nm was measured.

[5] = Stabilizing effect on octanal (APHA color); type: physicochemical; settings: 37° C, 1 month; original APHA 15; 50% controlling agent added or octanal alone
Experimental: Octanal was selected as a single perfume, and the stabilizing effect of the perfume controlling agent was determined.
Amount of Perfume Controlling Agent: 50% based on the octanal (in the case of both DIBA and DIAA)
Test Temperature and Period: 37° C, one month (checked every week)
Items Evaluated: Acid value (AV), carbonyl value (COV), APHA color
In the test, a 100 ml brown bottle boiled in water for 12 hours was used, and the head space of the bottle was purged with nitrogen gas after the octanal had been introduced into the bottle.
Specifically, the color of a solution obtained by diluting 1 ml of a standard original color liquid (octanal) with water exactly to a volume of 100 ml is taken as APHA No. 5, and the APHA color number is increased by a multiple of 5 (as 10, 15, 20 . . . ) for every 1 ml increase of the original liquid.

skin of a guinea pig = experiment: Cumulative irritation on the skin of a guinea pig; type: in vivo; settings: 0.3 ml three times at 24 hour intervals, intact skin
Experimental: The cumulative irritation on the skin of a guinea pig was evaluated by coating 0.3 ml of a test agent on intact skin of the guinea pig and judging the skin reaction after a lapse of 24 hours, then coating the test agent in an amount of 0.3 ml on the same site twice, each at 24 hour intervals, and judging the reaction of the skin after a lapse of 72 hours (after coating three times).

Structure (SMILES): CC(C)COC(=O)CCCCC(=O)OCC(C)C [DIBA, diisobutyl adipate]
- Analysis of Volatilized Portion after Standing 15 Minutes (HS-GC (II) Method) ([1]; Citral (not present: 3.5%)): 1.3%
- Analysis of Volatilized Portion after Standing 15 Minutes (HS-GC (II) Method) ([1]; Limonene (not present: 2.6%)): 45.9%
- Analysis of Volatilized Portion after Standing 15 Minutes (HS-GC (II) Method) ([1]; Linalool (not present: 45.2%)): 29.7%
- Analysis of Volatilized Portion after Standing 15 Minutes (HS-GC (II) Method) ([1]; Linalyl Acetate (not present: 39.0%)): 16.4%
- Analysis of Volatilized Portion after Standing 15 Minutes (HS-GC (II) Method) ([1]; Musk ketone (not present: 0.0%)): 0.0%
- Analysis of Volatilized Portion after Standing 15 Minutes (HS-GC (II) Method) ([1]; Pinene (not present: 0.2%)): 2.4%
- Volatility and fixing ability ([1]; conclusion from Tables 3, 4 and 5): balanced volatility and fixing ability like DEP and BB
- LD50 ([2]; acute oral toxicity): 12.3 mL/kg
- Acute toxicity compared with conventional perfume controlling agents ([2]; conclusion from Table 1): equal to, or lower than, other conventional perfume controlling agents
- Analysis of Residue on Paper after Standing 15 Minutes (Area Ratio) ([3]; Citral (not present: 1.5), area of musk ketone taken as 1): 2
- Analysis of Residue on Paper after Standing 15 Minutes (Area Ratio) ([3]; Limonene (not present: 0.3), area of musk ketone taken as 1): 0.6
- Analysis of Residue on Paper after Standing 15 Minutes (Area Ratio) ([3]; Linalool (not present: 6.4), area of musk ketone taken as 1): 9.5
- Analysis of Residue on Paper after Standing 15 Minutes (Area Ratio) ([3]; Linalyl Acetate (not present: 5.1), area of musk ketone taken as 1): 8.5
- Analysis of Residue on Paper after Standing 15 Minutes (Area Ratio) ([3]; Musk Ketone (reference, taken as 1; not present: 1.0)): 1
- Analysis of Residue on Paper after Standing 15 Minutes (Area Ratio) ([3]; Pinene (not present: 0.0), area of musk ketone taken as 1): 0
- Primary irritation of the skin (skin of an albino rabbit): did not exhibit irritating effects
- Head Space Analysis of the Perfume after Adding 50% of DIBA ([4]; Benzyl Acetate, content 11.0% (alone 12.5%)): 12.6%
- Head Space Analysis of the Perfume after Adding 50% of DIBA ([4]; Geraniol, content 16.5% (alone 0.9%)): 0.5%
- Head Space Analysis of the Perfume after Adding 50% of DIBA ([4]; Lily Aldehyde, content 27.5% (alone 0.4%)): 0.2%
- Head Space Analysis of the Perfume after Adding 50% of DIBA ([4]; Limonene, content 5.5% (alone 53.4%)): 57.5%
- Head Space Analysis of the Perfume after Adding 50% of DIBA ([4]; Linalool, content 11.0% (alone 15.0%)): 12.8%
- Head Space Analysis of the Perfume after Adding 50% of DIBA ([4]; Linalyl Acetate, content 11.0% (alone 4.1%)): 0.1%
- Head Space Analysis of the Perfume after Adding 50% of DIBA ([4]; Nonanal, content 1.1% (alone […])): 2.1%
- Head Space Analysis of the Perfume after Adding 50% of DIBA ([4]; Rose P, content 16.5% (alone 5.1%)): 4.4%
- pH (Pseudomonas aeruginosa; 0 days elapsed): 6.94
- Number of Living Cells (Pseudomonas aeruginosa; 2 days elapsed): 2.3 × 10^7
- pH (Pseudomonas aeruginosa; 2 days elapsed): 4.72
- OD (turbidity) (Pseudomonas aeruginosa; 2 days elapsed): 0.152
- Number of Living Cells (Pseudomonas aeruginosa; 7 days elapsed): 3 × 10^2
- pH (Pseudomonas aeruginosa; 7 days elapsed): 4.42
- OD (turbidity) (Pseudomonas aeruginosa; 7 days elapsed): 0.13
- Number of Living Cells (Pseudomonas aeruginosa; 14 days elapsed): < 10^2
- pH (Pseudomonas aeruginosa; 14 days elapsed): 4.40
- OD (turbidity) (Pseudomonas aeruginosa; 14 days elapsed): 0.115
- Assimilation by microorganism (Pseudomonas aeruginosa; conclusion from Table 8): assimilated very well
- APHA color of octanal [5]: about 30 APHA
- Cumulative irritation on the skin (skin of a guinea pig): did not exhibit irritating effects
